Results on twelve compounds are retold here after paper PMC10123497 (RSC Advances, 2023).

The subject of one data set is HepG2. The data set is described as follows: MTT in vitro cytotoxicity assay. The following applies: for IC50: Homo sapiens, HepG2, 24 h, read-out: In vitro cytotoxicity activity IC50 ± SD; for Selectivity index (SI): (IC50 of WI-38)/(IC50 of HepG2).
The subject of a further data set is HCT-116. In words: MTT in vitro cytotoxicity assay. The following applies: for IC50: Homo sapiens, HCT-116, 24 h, read-out: In vitro cytotoxicity activity IC50 ± SD; for Selectivity index (SI): (IC50 of WI-38)/(IC50 of HCT-116).
A further data set relates to MDA-MB-231. In words: MTT in vitro cytotoxicity assay. It is filed as cell-based, human. The note with it: for Selectivity index (SI): (IC50 of WI-38)/(IC50 of MDA-MB-231).
Data set [1] is described as follows: MTT cytotoxicity on non-tumorigenic normal cell line. The note with it: human, WI-38 cells (non-tumorigenic normal lung fibroblasts). It is filed as cell-based.
In another data set the test system is MCF-7. The data set is described as follows: MTT in vitro cytotoxicity assay. The following applies: for Selectivity index (SI): (IC50 of WI-38)/(IC50 of MCF-7); for IC50: read-out: In vitro cytotoxicity activity IC50 ± SD.
Data set [2] concerns MCF-7 cells. The data set is described as follows: Cell cycle analysis by flow cytometry. It is filed as cell-based, human. The following applies: MCF-7 treated at IC50 = 3.82 μM. For orientation: In flow cytometry, cells or beads pass a laser one at a time.
Data set [3] deals with MCF-7 cells. The data set is described as follows: Annexin-V/propidium iodide apoptosis assay. The data set is classed as cell-based, human.
The subject of a further data set is p53. In words: qRT-PCR gene expression in MCF-7. It is filed as cell-based, human. The note with it: MCF-7, vs untreated control = 1. (In general: Quantitative PCR measures a nucleic acid by following its amplification.)
The target in a further data set is EGFR^Wt (Homo sapiens, UniProt P00533). In words: EGFR Kinase Assay Kit. It is filed as biochemical.
Sequence of EGFR^Wt (P00533 25-1210): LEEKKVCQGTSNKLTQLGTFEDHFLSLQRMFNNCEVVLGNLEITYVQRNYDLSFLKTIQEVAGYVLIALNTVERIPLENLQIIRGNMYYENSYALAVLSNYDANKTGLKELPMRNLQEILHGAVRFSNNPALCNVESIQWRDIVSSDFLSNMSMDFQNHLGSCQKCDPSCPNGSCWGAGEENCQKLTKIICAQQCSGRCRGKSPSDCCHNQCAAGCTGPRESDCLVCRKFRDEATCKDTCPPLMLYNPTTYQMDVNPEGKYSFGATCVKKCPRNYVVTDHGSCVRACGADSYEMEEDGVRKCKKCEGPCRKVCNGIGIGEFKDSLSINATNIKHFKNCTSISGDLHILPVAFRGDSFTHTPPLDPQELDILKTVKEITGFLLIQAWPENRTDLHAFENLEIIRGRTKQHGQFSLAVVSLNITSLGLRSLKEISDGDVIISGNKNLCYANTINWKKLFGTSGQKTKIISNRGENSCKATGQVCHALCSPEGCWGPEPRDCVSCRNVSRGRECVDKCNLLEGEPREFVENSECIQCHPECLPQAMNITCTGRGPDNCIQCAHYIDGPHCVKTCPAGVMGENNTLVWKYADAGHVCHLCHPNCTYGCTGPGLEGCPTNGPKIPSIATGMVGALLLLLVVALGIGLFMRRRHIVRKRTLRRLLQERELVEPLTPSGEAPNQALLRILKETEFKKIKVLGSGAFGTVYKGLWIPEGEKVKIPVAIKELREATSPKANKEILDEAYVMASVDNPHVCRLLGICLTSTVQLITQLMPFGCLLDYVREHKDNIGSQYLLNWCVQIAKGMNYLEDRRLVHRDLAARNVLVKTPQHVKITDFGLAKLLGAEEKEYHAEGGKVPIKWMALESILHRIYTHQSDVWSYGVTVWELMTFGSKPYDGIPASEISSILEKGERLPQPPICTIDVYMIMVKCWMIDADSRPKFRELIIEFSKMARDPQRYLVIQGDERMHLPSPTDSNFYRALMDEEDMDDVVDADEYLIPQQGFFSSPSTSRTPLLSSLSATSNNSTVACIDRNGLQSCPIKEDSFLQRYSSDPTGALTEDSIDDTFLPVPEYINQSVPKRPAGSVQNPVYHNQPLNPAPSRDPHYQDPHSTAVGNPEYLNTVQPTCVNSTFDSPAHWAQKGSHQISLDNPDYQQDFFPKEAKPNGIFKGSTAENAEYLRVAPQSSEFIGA
Another data set has as its target EGFR^(L858R) (Homo sapiens, UniProt P00533, L858R). In words: EGFR. It is filed as biochemical.
A further data set concerns the target VEGFR2 (Homo sapiens, UniProt P35968). The data set is described as follows: biochemical.

Like-named read-outs stand apart in the source and are kept apart here.

Sequence of VEGFR2 (P35968 20-1356): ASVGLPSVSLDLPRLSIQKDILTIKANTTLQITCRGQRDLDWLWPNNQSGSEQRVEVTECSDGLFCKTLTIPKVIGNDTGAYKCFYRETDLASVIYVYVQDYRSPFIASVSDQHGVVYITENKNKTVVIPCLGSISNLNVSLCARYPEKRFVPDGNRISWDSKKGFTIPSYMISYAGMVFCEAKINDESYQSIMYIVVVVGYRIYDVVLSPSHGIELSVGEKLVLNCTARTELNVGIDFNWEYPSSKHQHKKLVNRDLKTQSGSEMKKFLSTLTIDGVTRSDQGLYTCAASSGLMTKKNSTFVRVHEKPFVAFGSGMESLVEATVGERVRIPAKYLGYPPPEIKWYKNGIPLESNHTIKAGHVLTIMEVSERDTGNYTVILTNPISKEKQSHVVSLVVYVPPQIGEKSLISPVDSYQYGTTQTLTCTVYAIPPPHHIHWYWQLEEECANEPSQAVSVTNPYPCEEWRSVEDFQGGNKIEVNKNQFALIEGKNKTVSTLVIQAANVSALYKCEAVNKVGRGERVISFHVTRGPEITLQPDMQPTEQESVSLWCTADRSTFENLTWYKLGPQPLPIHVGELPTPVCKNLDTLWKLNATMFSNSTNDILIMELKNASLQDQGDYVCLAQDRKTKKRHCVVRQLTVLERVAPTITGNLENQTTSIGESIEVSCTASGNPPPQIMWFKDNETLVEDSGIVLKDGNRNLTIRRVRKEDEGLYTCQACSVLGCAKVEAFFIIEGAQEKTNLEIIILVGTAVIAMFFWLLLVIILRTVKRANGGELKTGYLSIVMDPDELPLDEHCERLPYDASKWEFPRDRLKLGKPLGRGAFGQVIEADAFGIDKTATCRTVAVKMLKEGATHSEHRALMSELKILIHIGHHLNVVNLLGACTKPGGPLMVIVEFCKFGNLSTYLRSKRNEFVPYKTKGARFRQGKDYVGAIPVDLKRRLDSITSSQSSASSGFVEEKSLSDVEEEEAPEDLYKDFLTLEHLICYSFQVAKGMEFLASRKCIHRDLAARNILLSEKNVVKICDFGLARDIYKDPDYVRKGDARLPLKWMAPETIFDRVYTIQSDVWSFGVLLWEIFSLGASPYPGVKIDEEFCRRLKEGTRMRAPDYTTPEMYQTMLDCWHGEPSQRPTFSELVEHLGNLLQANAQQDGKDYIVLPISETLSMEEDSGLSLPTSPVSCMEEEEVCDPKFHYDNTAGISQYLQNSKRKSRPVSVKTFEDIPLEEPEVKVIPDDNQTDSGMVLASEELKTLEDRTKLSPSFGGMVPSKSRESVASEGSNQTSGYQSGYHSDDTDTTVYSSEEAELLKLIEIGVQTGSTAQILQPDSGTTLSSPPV
Sequence of EGFR^(L858R) (P00533 25-1210 L858R): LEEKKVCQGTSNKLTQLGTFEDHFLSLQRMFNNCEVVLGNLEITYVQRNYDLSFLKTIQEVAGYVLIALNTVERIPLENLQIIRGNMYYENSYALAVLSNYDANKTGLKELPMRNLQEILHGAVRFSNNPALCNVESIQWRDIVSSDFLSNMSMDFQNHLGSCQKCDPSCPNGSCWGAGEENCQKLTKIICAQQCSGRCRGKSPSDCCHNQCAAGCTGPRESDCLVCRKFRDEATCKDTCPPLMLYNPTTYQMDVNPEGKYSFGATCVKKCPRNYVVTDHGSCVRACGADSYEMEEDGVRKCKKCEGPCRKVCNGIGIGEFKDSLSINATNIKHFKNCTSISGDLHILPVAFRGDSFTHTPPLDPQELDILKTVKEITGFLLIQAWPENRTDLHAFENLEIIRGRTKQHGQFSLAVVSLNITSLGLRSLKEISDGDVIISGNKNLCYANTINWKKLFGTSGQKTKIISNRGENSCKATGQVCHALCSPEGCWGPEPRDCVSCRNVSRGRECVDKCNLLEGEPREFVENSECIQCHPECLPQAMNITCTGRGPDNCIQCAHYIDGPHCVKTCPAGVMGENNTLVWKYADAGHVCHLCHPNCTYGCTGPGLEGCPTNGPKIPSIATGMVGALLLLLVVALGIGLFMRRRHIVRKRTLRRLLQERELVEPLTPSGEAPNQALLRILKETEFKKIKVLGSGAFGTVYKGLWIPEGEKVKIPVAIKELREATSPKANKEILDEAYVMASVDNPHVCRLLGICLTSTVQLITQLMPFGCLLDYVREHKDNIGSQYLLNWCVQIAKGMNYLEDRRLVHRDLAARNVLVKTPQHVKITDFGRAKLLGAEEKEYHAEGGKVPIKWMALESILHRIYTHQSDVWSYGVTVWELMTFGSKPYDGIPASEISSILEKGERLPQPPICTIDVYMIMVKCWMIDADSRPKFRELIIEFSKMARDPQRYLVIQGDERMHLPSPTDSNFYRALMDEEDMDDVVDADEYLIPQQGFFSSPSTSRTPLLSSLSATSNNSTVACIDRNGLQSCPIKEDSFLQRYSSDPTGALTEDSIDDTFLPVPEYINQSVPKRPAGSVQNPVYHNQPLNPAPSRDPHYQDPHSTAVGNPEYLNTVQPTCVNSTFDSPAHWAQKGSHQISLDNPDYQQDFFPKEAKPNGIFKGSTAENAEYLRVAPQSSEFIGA

On to `O=S(=O)(c1ccc2nc(Cl)c(Cl)nc2c1)N1CCCC1` [Compound 7, 2,3-Dichloro-6-(pyrrolidin-1-ylsulfonyl)quinoxaline], for which the IC50 (usually the concentration that inhibits the measured activity by half) in the data set with HepG2 was found to be 48.7 ± 2.8 µM; in the data set on HCT-116, 38.1 ± 2.2 µM.

Turning to `N#CC(C#N)=C1Sc2nc3ccc(S(=O)(=O)N4CCCC4)cc3nc2S1` [Compound 10a, 2-(6-(Pyrrolidin-1-ylsulfonyl)-[1,3]dithiolo[4,5-b]quinoxalin-2-ylidene)malononitrile], the IC50 turned out to be 89.7 ± 4.5 µM with HepG2 and 93.8 ± 4.7 µM in the data set with HCT-116.

Take `CCOC(=O)C(C#N)=C1Sc2nc3ccc(S(=O)(=O)N4CCCC4)cc3nc2S1` [Compound 10b, Ethyl 2-cyano-2-(6-(pyrrolidin-1-ylsulfonyl)-[1,3]dithiolo[4,5-b]quinoxalin-2-ylidene)acetate]: the half-maximal inhibitory concentration (IC50) turned out to be 80.3 ± 4.1 µM in the data set on HepG2 and 87.4 ± 4.2 µM in the data set with HCT-116.

In the case of `N#CC(C(=O)Nc1cccc(C(F)(F)F)c1)=C1Sc2nc3ccc(S(=O)(=O)N4CCCC4)cc3nc2S1` [Compound 10c, 2-Cyano-2-(6-(pyrrolidin-1-ylsulfonyl)-[1,3]dithiolo[4,5-b]quinoxalin-2-ylidene)-N-(3-(trifluoromethyl)phenyl)acetamide], the “Selectivity index (SI)” value in the data set on MDA-MB-231 worked out at 8.48; in the data set on HepG2, 3.82; in the data set with HCT-116, 7.01; with MCF-7 it was 10.61. In addition, the IC50 at 24 h in data set [1] was determined as 65.1 ± 3.5 µM. The IC50 is 17 ± 1.3 µM with HepG2; 9.26 ± 0.8 µM in the data set on HCT-116; 6.13 ± 0.4 µM in the data set on MCF-7 (MCF-7, MTT, 24 h).

Consider `COc1ccc(C=NNC(=O)C(C#N)=C2Sc3nc4ccc(S(=O)(=O)N5CCCC5)cc4nc3S2)cc1` [Compound 10d, 2-Cyano-N′-(4-methoxybenzylidene)-2-(6-(pyrrolidin-1-ylsulfonyl)-[1,3]dithiolo[4,5-b]quinoxalin-2-ylidene)acetohydrazide], for which the half-inhibitory concentration (IC50) in the data set on HepG2 came to 32.1 ± 2.2 µM; in the data set on HCT-116, 18.4 ± 1.4 µM.

Take `N#CC(C(=O)NN=C1C(=O)Nc2ccccc21)=C1Sc2nc3ccc(S(=O)(=O)N4CCCC4)cc3nc2S1` [Compound 10e, 2-Cyano-N′-(2-oxoindolin-3-ylidene)-2-(6-(pyrrolidin-1-ylsulfonyl)-[1,3]dithiolo[4,5-b]quinoxalin-2-ylidene)acetohydrazide]: the IC50 with HepG2 turned out to be 41.9 ± 2.5 µM; in the data set on HCT-116, 22 ± 1.7 µM.

As for `CCOC(=O)C(C(C)=O)=C1Sc2nc3ccc(S(=O)(=O)N4CCCC4)cc3nc2S1` [Compound 10f, Ethyl 3-oxo-2-(6-(pyrrolidin-1-ylsulfonyl)-[1,3]dithiolo[4,5-b]quinoxalin-2-ylidene)butanoate], the “Selectivity index (SI)” value came to 4.41 in the data set on MDA-MB-231, 1.76 in the data set with HepG2, 3.69 with HCT-116 and 5.27 in the data set on MCF-7. In [1], the half-inhibitory concentration (IC50) at 24 h came to 46.2 ± 2.4 µM. Also, the IC50 in the data set with HepG2 turned out to be 26.8 ± 1.9 µM; in the data set on HCT-116 it was 12.5 ± 1 µM; with MCF-7 (MCF-7, MTT, 24 h) it was 8.78 ± 0.6 µM.

For the compound `O=C1CCCCC1=C1Sc2nc3ccc(S(=O)(=O)N4CCCC4)cc3nc2S1` [Compound 12, 2-(6-(Pyrrolidin-1-ylsulfonyl)-[1,3]dithiolo[4,5-b]quinoxalin-2-ylidene)cyclohexan-1-one], the “Selectivity index (SI)” value in the data set on MDA-MB-231 worked out at 36.12; with HepG2, 9.89; in the data set on HCT-116, 10.26; with MCF-7, 21.37. In addition, the entries for the “Fold increase of potency as compared with doxorubicin” value in the data set with MDA-MB-231 (MDA-MB-231) and in the data set with MCF-7 (MCF-7) were 1.41 fold and 1.09 fold, respectively. In addition, in data set [1], the IC50 at 24 h was determined as 81.6 ± 4.1 µM. In the data set on MCF-7 cells [2] (untreated control 12.55), the “Cell cycle distribution %G2/M” value is given as 7.32%. In addition, the “Cell cycle distribution %G0-G1” value in the data set on MCF-7 cells [2] (untreated control 57.66) amounted to 48.16%. In the data set with MCF-7 cells [3] (MCF-7), the “Increase in early apoptosis compared to the control” value is 54.59 folds. Moreover, the “Increase in late apoptosis compared to the control” value in the data set with MCF-7 cells [3] (MCF-7) is reported as 79.33 folds. Also, in the data set with MCF-7 cells [3] (MCF-7, at IC50 for 24 h, control 0.15), the “Apoptosis Late” value is recorded as 11.9%. For the same compound, the “Apoptosis Early” value with MCF-7 cells [3] (MCF-7, at IC50 for 24 h, control 0.44) is given as 24.02%. Besides, the Necrosis in the data set with MCF-7 cells [3] (MCF-7, at IC50 for 24 h, control 1.25) turned out to be 6.16%. Besides, the “Apoptosis Total” value in the data set with MCF-7 cells [3] (MCF-7, at IC50 for 24 h, control 1.84) is reported as 42.08%. In addition, in the data set with p53, the “RT-PCR results fold change p53 (pro-apoptotic)” value is 4.97 fold. The half-inhibitory concentration (IC50) at EGFR^Wt (Enzyme inhibitory activity IC50 EGFR^Wt) came out at 0.19 ± 0.009 µM; against EGFR^(L858R) (Enzyme inhibitory activity IC50 EGFR^(L858R)), 0.121 ± 0.007 µM; against VEGFR2 (Enzyme inhibitory activity IC50 VEGFR2) it was 0.42 ± 0.021 µM; in the data set on HepG2, 8.25 ± 0.6 µM; in the data set with HCT-116, 7.95 ± 0.5 µM; in the data set with MCF-7 (Homo sapiens, MCF7, 24 h), 3.82 ± 0.2 µM. Besides, the inhibition at 10 µM on EGFR^Wt (read-out: Inhibitory% EGFR^Wt) came out at 85.4%; at EGFR^(L858R) (read-out: Inhibitory% EGFR^(L858R)), 87%; on VEGFR2 (read-out: Inhibitory% VEGFR2), 78.9%.

Turning to `CC1=NNC(=O)C1=C1Sc2nc3ccc(S(=O)(=O)N4CCCC4)cc3nc2S1` [Compound 14, 5-Methyl-4-(6-(pyrrolidin-1-ylsulfonyl)-[1,3]dithiolo[4,5-b]quinoxalin-2-ylidene)-2,4-dihydro-3H-pyrazol-3-one], the IC50 in the data set with HepG2 is 69 ± 3.9 µM; in the data set on HCT-116, 71.2 ± 3.8 µM.

In the case of `CC1=NN(c2ccccc2)C(=O)C1=C1Sc2nc3ccc(S(=O)(=O)N4CCCC4)cc3nc2S1` [Compound 16, 5-Methyl-2-phenyl-4-(6-(pyrrolidin-1-ylsulfonyl)-[1,3]dithiolo[4,5-b]quinoxalin-2-ylidene)-2,4-dihydro-3H-pyrazol-3-one], the half-inhibitory concentration (IC50) in the data set with HepG2 and with HCT-116 was over 100 µM throughout.

Consider `O=C1NC(=O)C(=C2Sc3nc4ccc(S(=O)(=O)N5CCCC5)cc4nc3S2)C(=O)N1` [Compound 18, 5-(6-(Pyrrolidin-1-ylsulfonyl)-[1,3]dithiolo[4,5-b]quinoxalin-2-ylidene)pyrimidine-2,4,6(1H,3H,5H)-trione], for which the IC50 in the data set on HepG2 was 83.4 ± 4.3 µM; in the data set with HCT-116, over 100 µM; in the data set with MCF-7 (Homo sapiens, MCF7, 24 h) it was 62.8 ± 3.4 µM.

For `COc1cccc2c1C(=O)c1c(O)c3c(c(O)c1C2=O)C[C@@](O)(C(=O)CO)C[C@@H]3O[C@H]1C[C@H](N)[C@H](O)[C@H](C)O1` [Doxorubicin, doxorubicin, reference compound], the IC50 in the data set with HepG2 was 4.5 ± 0.2 µM.
